Test results as given in US8952024B2, “Herbicidal pyrimidone derivatives” (E I du Pont de Nemours and Company, priority 2009, dated 2015).

How the values were obtained:
Type in all cases: in vivo
[1] = tested on: ducksalad (Heteranthera limosa); experiment: Test B flooded paddy test; conditions: for Plant response rating, Flood, Ducksalad: 250 g ai/ha, flooded paddy test, visual rating on 0 to 100 scale (0 no effect, 100 complete control) after 13 to 15 days; for Plant response rating, Ducksalad: Flood (flooded paddy test), 13 to 15 days
In short: (§1)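 Seedlings reaching 2 leaves are flooded 3 cm deep; test material is delivered to that water, which stays at the same depth. Plants remain in a greenhouse 13–15 days and are then scored by eye versus controls from 0 to 100.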

[2] = tested on: barnyardgrass (Echinochloa crus-galli); experiment: Test B flooded paddy test; conditions: for Plant response rating, Flood, Barnyardgrass: 250 g ai/ha, flooded paddy test, visual rating on 0 to 100 scale (0 no effect, 100 complete control) after 13 to 15 days; for Plant response rating, Barnyardgrass: Flood (flooded paddy test), 13 to 15 days
In short: as §1

[3] = tested on: umbrella sedge (Cyperus difformis); experiment: Test B flooded paddy test; conditions: for Plant response rating, Flood, Sedge, Umbrella: 250 g ai/ha, flooded paddy test, visual rating on 0 to 100 scale (0 no effect, 100 complete control) after 13 to 15 days; for Plant response rating, Sedge, Umbrella: Flood (flooded paddy test), 13 to 15 days
In short: as §1

[4] = tested on: rice (Oryza sativa); experiment: Test B flooded paddy test; conditions: for Plant response rating, Flood, Rice: 250 g ai/ha, flooded paddy test, visual rating on 0 to 100 scale (0 no effect, 100 complete control) after 13 to 15 days; for Plant response rating, Rice: Flood (flooded paddy test), 13 to 15 days
In short: as §1

[5] = tested on: galium (catchweed bedstraw, Galium aparine); experiment: Test B pre-/postemergence plant response; conditions: Preemergence
In short: (§2)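 Visual ratings on a 0–100 scale (100 = complete control) were made versus untreated controls 13–15 days after treatment in a greenhouse. Compounds in surfactant-containing non-phytotoxic solvent were applied preemergence to seeds in loam–sand blend or postemergence to 1- to 4-leaf plants (2–18 cm).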

[6] = tested on: sunflower (common oilseed sunflower, Helianthus annuus); experiment: Test B pre-/postemergence plant response; conditions: Preemergence
In short: as §2

[7] = tested on: giant foxtail (Setaria faberii); experiment: Test B pre-/postemergence plant response
In short: as §2

[8] = tested on: Russian thistle (Salsola kali); experiment: Test B pre-/postemergence plant response; conditions: Preemergence
In short: as §2

[9] = tested on: ragweed (common ragweed, Ambrosia elatior); experiment: Test B pre-/postemergence plant response
In short: as §2

[10] = tested on: nightshade (eastern black nightshade, Solanum ptycanthum); experiment: Test B pre-/postemergence plant response; conditions: Preemergence
In short: as §2

[11] = tested on: Italian ryegrass (Lolium multiflorum); experiment: Test B pre-/postemergence plant response
In short: as §2

[12] = tested on: chickweed (Stellaria media); experiment: Test B postemergence plant response
In short: (§3)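 Plants grown in peat/vermiculite medium were sprayed postemergence at 2–18 cm height (1- to 4-leaf stage). After 13–15 days in the greenhouse, response was rated visually against untreated controls on a 0–100 scale (0 no effect, 100 complete control).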

[13] = tested on: canarygrass (Phalaris minor); experiment: Test B postemergence plant response
In short: as §3

[14] = tested on: winter barley (Hordeum vulgare); experiment: Test B postemergence plant response
In short: as §3

[15] = tested on: windgrass (Apera spica-venti); experiment: Test B postemergence plant response
In short: as §3

[16] = 62 g ai/ha, scale of 0 to 100 where 0 is no effect and 100 is complete control
[17] = 125 g ai/ha, scale 0 to 100, 0 is no effect, 100 is complete control
[18] = Flood, 31 g ai/ha, scale 0 to 100 (0 no effect, 100 complete control)
[19] = 125 g ai/ha, scale 0 to 100, 0 no effect, 100 complete control
[20] = 31 g ai/ha, scale 0 to 100 (0 no effect, 100 complete control)
[21] = 62 g ai/ha, scale 0 to 100, 0 no effect, 100 complete control
[22] = 16 g ai/ha, Postemergence, 0 to 100 scale
[23] = 31 g ai/ha, postemergence, scale 0 to 100, 0 is no effect, 100 is complete control
[24] = 62 g ai/ha, postemergence, 0 is no effect, 100 is complete control, 13 to 15 days
[25] = Postemergence, 125 g ai/ha, visual rating after 13 to 15 days, scale 0 (no effect) to 100 (complete control)
[26] = Preemergence, 31 g ai/ha, scale 0 to 100 (0 no effect, 100 complete control)
[27] = Preemergence, 62 g ai/ha, scale 0 to 100, 0 no effect, 100 complete control
[28] = Preemergence, 125 g ai/ha, scale 0 to 100, 0 no effect, 100 complete control
[29] = 31 g ai/ha, scale of 0 to 100 where 0 is no effect and 100 is complete control
[30] = Postemergence, 62 g ai/ha, scale 0 (no effect) to 100 (complete control), 13 to 15 days
[31] = Postemergence, 250 g ai/ha, scale 0 to 100 (0 no effect, 100 complete control)

For `O=C1CCCC(O)=C1C(=O)c1cnc(-c2cccc(Br)c2)n(-c2ccccc2)c1=O` [Compound 69], the “Plant response rating, Flood, Ducksalad” value [1] was 20, the “Plant response rating, Ducksalad” value [1, 16] was 0 and the “Plant response rating, Ducksalad” value [1, 17] was 0. For the same molecule, the “Ducksalad plant response rating” value [1, 18] was 0, the “Plant response rating, Flood, Barnyardgrass” value [2] was 30 and the “Plant response rating, Barnyardgrass” value [2, 16] was 0. The “Plant response rating, Barnyardgrass” value [2, 17] was 20, the “Barnyardgrass plant response rating” value [2, 18] was 0 and the “Plant response rating, Flood, Sedge, Umbrella” value [3] was 40. The “Plant response rating, Sedge, Umbrella” value [3, 16] was 0, the “Plant response rating, Sedge, Umbrella” value [3, 17] was 0 and the “Sedge, Umbrella plant response rating” value [3, 18] was 0. The “Plant response rating, Flood, Rice” value [4] was 0, the “Plant response rating, Rice” value [4, 16] was 0 and the “Plant response rating, Rice” value [4, 17] was 0. For the same molecule, the “Rice plant response rating” value [4, 18] was 0, the “Plant response rating, Galium” value [5, 19] was 0 and the “Plant response rating, Sunflower” value [6, 20] was 0. The “Plant response rating, Sunflower” value [6, 21] was 0, the “Plant response rating, Sunflower” value [6, 19] was 5 and the “Plant response rating, Foxtail, Giant” value [7, 22] was 80. For the same molecule, the “Plant response rating, Foxtail, Giant” value [7, 23] was 95, the “Foxtail, Giant plant response rating (0 to 100 scale)” value [7, 24] was 98 and the “Plant response rating, Foxtail, Giant” value [7, 25] was 98. The “Plant response rating, Foxtail, Giant” value ([7]; Preemergence, 16 g ai/ha, scale 0 to 100, 0 no effect, 100 complete control) was 0, the “Plant response rating, Foxtail, Giant” value [7, 26] was 5 and the “Plant response rating, Foxtail, Giant” value [7, 27] was 75. The “Plant response rating, Foxtail, Giant” value [7, 28] was 90, the “Plant response rating, Russian Thistle” value [8, 20] was 100 and the “Plant response rating, Russian Thistle” value [8, 21] was 100. The “Plant response rating, Russian Thistle” value [8, 19] was 100, the “Plant response rating, Ragweed” value [9, 22] was 75 and the “Plant response rating, Ragweed” value [9, 23] was 90. The “Ragweed plant response rating (0 to 100 scale)” value [9, 24] was 90, the “Plant response rating, Ragweed” value [9, 25] was 100 and the “Plant response rating, Ragweed” value [9, 26] was 65. For the same molecule, the “Plant response rating, Ragweed” value [9, 27] was 65, the “Plant response rating, Ragweed” value [9, 28] was 65 and the “Plant response rating, Nightshade” value ([10]; 16 g ai/ha, scale 0 to 100, 0 no effect, 100 complete control) was 80. For the same molecule, the “Plant response rating, Nightshade” value [10, 20] was 95, the “Plant response rating, Nightshade” value [10, 21] was 98 and the “Plant response rating, Nightshade” value [10, 19] was 98. The “Plant response rating, Ryegrass, Italian” value [11, 22] was 0, the “Plant response rating, Ryegrass, Italian” value [11, 23] was 30 and the “Ryegrass, Italian plant response rating (0 to 100 scale)” value [11, 24] was 50. For the same molecule, the “Plant response rating, Ryegrass, Italian” value [11, 25] was 50, the “Plant response rating, Ryegrass, Italian” value [11, 26] was 0 and the “Plant response rating, Ryegrass, Italian” value [11, 27] was 0. The “Plant response rating, Ryegrass, Italian” value [11, 28] was 0, the “Plant response rating, Chickweed” value [12, 22] was 95 and the “Plant response rating, Chickweed” value [12, 23] was 98. The “Chickweed plant response rating (0 to 100 scale)” value [12, 24] was 98, the “Plant response rating, Chickweed” value [12, 25] was 98 and the “Plant response rating, Canarygrass” value [13, 22] was 0. The “Plant response rating, Canarygrass” value [13, 23] was 0, the “Canarygrass plant response rating (0 to 100 scale)” value [13, 24] was 0 and the “Plant response rating, Canarygrass” value [13, 25] was 25. The “Plant response rating, Barley” value [14, 22] was 0, the “Plant response rating, Barley” value [14, 23] was 5 and the “Barley plant response rating (0 to 100 scale)” value [14, 24] was 5. The “Plant response rating, Barley” value [14, 25] was 15, the “Plant response rating, Windgrass” value [15, 22] was 40 and the “Plant response rating, Windgrass” value [15, 23] was 60. The “Windgrass plant response rating (0 to 100 scale)” value [15, 24] was 60 and the “Plant response rating, Windgrass” value [15, 25] was 80.

`CCCCc1ncc(C(=O)C2=C(O)CCCC2=O)c(=O)n1-c1ccccc1C` [Compound 62] was tested, and the “Plant response rating, Flood, Ducksalad” value [1] was 30, the “Plant response rating, Ducksalad” value [1, 29] was 0 and the “Plant response rating, Ducksalad” value [1, 16] was 0. For the same molecule, the “Plant response rating, Ducksalad” value [1, 17] was 0, the “Plant response rating, Flood, Barnyardgrass” value [2] was 0 and the “Plant response rating, Barnyardgrass” value [2, 29] was 0. For the same molecule, the “Plant response rating, Barnyardgrass” value [2, 16] was 0, the “Plant response rating, Barnyardgrass” value [2, 17] was 0 and the “Plant response rating, Flood, Sedge, Umbrella” value [3] was 0. The “Plant response rating, Sedge, Umbrella” value [3, 29] was 0, the “Plant response rating, Sedge, Umbrella” value [3, 16] was 0 and the “Plant response rating, Sedge, Umbrella” value [3, 17] was 0. For the same molecule, the “Plant response rating, Flood, Rice” value [4] was 0, the “Plant response rating, Rice” value [4, 29] was 0 and the “Plant response rating, Rice” value [4, 16] was 0. For the same molecule, the “Plant response rating, Rice” value [4, 17] was 0, the “Plant response rating, Galium” value ([5]; 250 g ai/ha, 0 to 100 scale) was 0 and the “Plant response rating, Galium” value [5, 20] was 0. The “Plant response rating, Galium” value [5, 21] was 0, the “Plant response rating, Galium” value [5, 19] was 0 and the “Plant response rating, Sunflower” value [6, 20] was 0. The “Plant response rating, Sunflower” value [6, 21] was 10, the “Plant response rating, Sunflower” value [6, 19] was 10 and the “Plant response rating, Foxtail, Giant” value [7, 23] was 55. For the same molecule, the “Plant response rating, Foxtail, Giant” value ([7]; 250 g ai/ha, Preemergence, 0 to 100 scale) was 20, the “Plant response rating, Foxtail, Giant” value [7, 30] was 65 and the “Plant response rating, Foxtail, Giant” value [7, 25] was 75. The “Plant response rating, Foxtail, Giant” value [7, 31] was 80, the “Plant response rating, Foxtail, Giant” value [7, 26] was 0 and the “Plant response rating, Foxtail, Giant” value [7, 27] was 0. For the same molecule, the “Plant response rating, Foxtail, Giant” value [7, 28] was 20, the “Plant response rating, Ragweed” value [9, 23] was 70 and the “Plant response rating, Ragweed” value [9, 30] was 75. The “Plant response rating, Ragweed” value [9, 25] was 75, the “Plant response rating, Ragweed” value [9, 31] was 80 and the “Plant response rating, Ragweed” value [9, 26] was 0. For the same molecule, the “Plant response rating, Ragweed” value [9, 27] was 20, the “Plant response rating, Ragweed” value [9, 28] was 45 and the “Plant response rating, Nightshade” value [10, 20] was 10. The “Plant response rating, Nightshade” value [10, 21] was 95, the “Plant response rating, Nightshade” value [10, 19] was 98 and the “Plant response rating, Ryegrass, Italian” value [11, 23] was 0. For the same molecule, the “Plant response rating, Ryegrass, Italian” value [11, 30] was 5, the “Plant response rating, Ryegrass, Italian” value [11, 25] was 50 and the “Plant response rating, Ryegrass, Italian” value [11, 31] was 50. The “Plant response rating, Ryegrass, Italian” value [11, 26] was 0, the “Plant response rating, Ryegrass, Italian” value [11, 27] was 0 and the “Plant response rating, Ryegrass, Italian” value [11, 28] was 0. The “Plant response rating, Chickweed” value [12, 23] was 70, the “Plant response rating, Chickweed” value [12, 30] was 70 and the “Plant response rating, Chickweed” value [12, 25] was 75. The “Plant response rating, Chickweed” value [12, 31] was 80, the “Plant response rating, Canarygrass” value [13, 23] was 0 and the “Plant response rating, Canarygrass” value [13, 30] was 0. For the same molecule, the “Plant response rating, Canarygrass” value [13, 25] was 0, the “Plant response rating, Canarygrass” value [13, 31] was 5 and the “Plant response rating, Barley” value [14, 23] was 0. The “Plant response rating, Barley” value [14, 30] was 5, the “Plant response rating, Barley” value [14, 25] was 5 and the “Plant response rating, Barley” value [14, 31] was 30. The “Plant response rating, Windgrass” value [15, 23] was 30, the “Plant response rating, Windgrass” value [15, 30] was 35 and the “Plant response rating, Windgrass” value [15, 25] was 35. The “Plant response rating, Windgrass” value [15, 31] was 50.
